Results as given in patent publication US11434222B2, “MAGL inhibitors” (H. LUNDBECK A/S, priority 2020, dated 2022).
Like-named read-outs stand apart in the source and are kept apart here.

Assay: Free fraction in rat plasma and brain homogenate by equilibrium dialysis
Format: in vitro ADME
Description: Brain disposition was evaluated in male Sprague-Dawley rats (n=3, standard body weight). Briefly, test compound was formulated as a simple suspension, in 0.5% HPMC in water, then administered by oral gavage (5 mg/kg, 5 mL/kg). Four hours post dosing, rats were sacrificed, and terminal blood and brain samples were taken. Blood was obtained via cardiac puncture (0.1 mL) and was added into 0.4 mL CH3CN for precipitation immediately. The samples were stored at −75+/−15° C. prior to analysis. Brain tissue samples were collected after animals were fully exsanguinated, and the tissues were washed with cold saline quickly. After sectioning, brain sections were immediately frozen in liquid nitrogen and stored at −75+/−15° C. prior to analysis. Blood and brain samples were analyzed by LC/MS/MS using an optimized analytical method. Concentrations of test compound in blood and brain were quantified against matrix matched calibration standards. The total blood, plasma, and brain concentration data are presented in Table 2 alongside the calculated brain Kp (total brain concentration:total plasma concentration ratio), the calculated brain kp,uu (unbound brain concentration:unbound plasma concentration ratio), the free fractions in rat plasma and brain, and the in vitro rat blood to plasma distribution profile. The total plasma concentration data were calculated from the total blood concentration data using rat blood to plasma ratio which was measured in vitro (1 μM test compound). For kp,uu determination, the free fraction in rat plasma and brain homogenate were measured in vitro by standard equilibrium dialysis (1 μM test compound and 6 h equilibration against buffer pH 7.4; for rat plasma analysis, 100 mM stock solution of diisopropyl fluorophosphate was added to the pre-warmed rat plasma prior to adding test article).

[1] = rat brain homogenate, buffer pH 7.4, read-out: Rat brain free fraction
[2] = rat plasma, buffer pH 7.4, read-out: Rat plasma free fraction

Structure (SMILES)	fraction unbound at 6 h, 1 μM [1]	fraction unbound at 6 h, 1 μM [2]
O=C(Nc1cccnn1)[C@H]1CC12CCN(C(=O)OC(C(F)(F)F)C(F)(F)F)CC2 [Example 6, 1,1,1,3,3,3-hexafluoropropan-2-yl (S)-1-(pyridazin-3-ylcarbamoyl)-6-azaspiro[2.5]octane-6-carboxylate]	0.04	0.055
O=C(NC1CCOCC1)[C@H]1CC12CCN(C(=O)OC(C(F)(F)F)C(F)(F)F)CC2 [Example 8, 1,1,1,3,3,3-hexafluoropropan-2-yl (S)-1-[(oxan-4-yl)carbamoyl]-6-azaspiro[2.5]octane-6-carboxylate]	0.167	0.427
